Results: ChEMBL document CHEMBL3763090, “A pharmacological perspective on the use of Brazilian Red Propolis and its isolated compounds against human diseases” (Eur J Med Chem, 2016)

Assay: Antioxidant activity assessed as inhibition of linoleic acid oxidation at 90 ug/ml measured over 60 mins by beta-carotene bleaching test
Type: physicochemical
Details: 1 h

inhibition (INH): 39.5%
Compound: COc1ccc([C@@H]2COc3cc(O)ccc3C2)c(O)c1
